A short description of data set [1]: Human hepatocyte stability assay. The format is in vitro ADME. Particulars: 1 μM compound, 1*10^6 cells/mL, 2-120 min.
Data set [2] can be described thus: Human microsome stability assay. Particulars: 1 μM compound, 0.5 mg/mL liver microsomal protein, 1 mM NADPH, 37° C., 0-30 minutes. A general note: Liver microsomes are a subcellular fraction often used to study metabolism.
The target in data set [3] is T1, recombinant human Myt1 (full length PKMYT1) (Homo sapiens, UniProt Q99640).
T1 sequence (Q99640 1-499): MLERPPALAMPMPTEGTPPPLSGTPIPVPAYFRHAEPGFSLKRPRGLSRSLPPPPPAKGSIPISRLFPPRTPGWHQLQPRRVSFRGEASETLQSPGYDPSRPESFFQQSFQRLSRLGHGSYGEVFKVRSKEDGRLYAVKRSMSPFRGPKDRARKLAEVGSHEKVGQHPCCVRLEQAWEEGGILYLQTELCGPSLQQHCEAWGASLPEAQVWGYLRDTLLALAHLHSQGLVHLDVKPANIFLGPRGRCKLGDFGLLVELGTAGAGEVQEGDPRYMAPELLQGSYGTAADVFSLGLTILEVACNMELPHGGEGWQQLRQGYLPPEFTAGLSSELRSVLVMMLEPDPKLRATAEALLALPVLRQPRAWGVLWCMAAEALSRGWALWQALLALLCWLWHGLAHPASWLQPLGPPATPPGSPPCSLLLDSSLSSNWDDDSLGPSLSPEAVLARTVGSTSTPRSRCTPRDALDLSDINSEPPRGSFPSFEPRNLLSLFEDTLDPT
The data set is described as follows: ADP-Glo assay (Myt1 kinase activity).

Broadly, the IC50 is the concentration that gives 50% inhibition.

For the compound `CCOc1cnc(C)c2[nH]c(=O)c(N)c(-c3ccc(F)c4[nH]ncc34)c12` [Example 184, 3-Amino-5-ethoxy-4-(7-fluoro-1H-indazol-4-yl)-8-methyl-1H-1,7-naphthyridin-2-one], in data set [1], the “Clearance of Human hepatocyte (μL/min/10^6 cell)” value (“Clearance of Human hepatocyte” for short) amounted to 1.3 μL/min/10^6 cell. In addition, the “Clearance of Human microsome” value in data set [2] is 6.20 mL/min/kg. Also, the IC50 in data set [3] was less than 10 nM.

`Cc1c(Cl)cnc2c(-c3ccc(F)c4[nH]ncc34)c(N)c(=O)[nH]c12` [Example 099, 3-Amino-7-chloro-4-(7-fluoro-1H-indazol-4-yl)-8-methyl-1H-1,5-naphthyridin-2-one]: the “Clearance of Human hepatocyte” value in data set [1] is on record as less than 1 μL/min/10^6 cell. In data set [2], the “Clearance of Human microsome” value amounted to 6.15 mL/min/kg. For the same compound, the IC50 in data set [3] was less than 10 nM.

With `Cc1cnc2c(-c3ccc(Cl)c4[nH]ncc34)c(N)c(=O)[nH]c2c1C` [Example 146, 3-Amino-4-(7-chloro-1H-indazol-4-yl)-7,8-dimethyl-1H-1,5-naphthyridin-2-one], in data set [1], the “Clearance of Human hepatocyte” value turned out to be 1.2 μL/min/10^6 cell. The “Clearance of Human microsome” value in data set [2] is 6.15 mL/min/kg. In addition, the IC50 in data set [3] was less than 10 nM.

Regarding `Nc1c(-c2ccc(F)c3[nH]ncc23)c2ncc(Cl)cc2[nH]c1=O` [Example 001, 3-Amino-7-chloro-4-(7-fluoro-1H-indazol-4-yl)-1H-1,5-naphthyridin-2-one], in data set [1], the “Clearance of Human hepatocyte” value is given as 2.1 μL/min/10^6 cell.

In the case of `Cc1ncc(OC(C)C)c2c(-c3ccc(F)c4[nH]ncc34)c(N)c(=O)[nH]c12` [Example 182, 3-Amino-4-(7-fluoro-1H-indazol-4-yl)-5-isopropoxy-8-methyl-1H-1,7-naphthyridin-2-one], in data set [2], the “Clearance of Human microsome” value was found to be 6.20 mL/min/kg. In addition, the IC50 in data set [3] stood at 14.7 nM.

Take `Cc1nc2c(-c3ccc(F)c4[nH]ncc34)c(N)c(=O)[nH]c2c(C)c1C` [Example 110, 3-Amino-4-(7-fluoro-1H-indazol-4-yl)-6,7,8-trimethyl-1H-1,5-naphthyridin-2-one]: the “Clearance of Human microsome” value in data set [2] stood at 6.15 mL/min/kg. In data set [3], the half-maximal inhibitory concentration (IC50) stood at 16.7 nM.

In the case of `COc1cnc2c(-c3ccc(F)c4[nH]ncc34)c(N)c(=O)[nH]c2c1C` [Example 136, 3-Amino-4-(7-fluoro-1H-indazol-4-yl)-7-methoxy-8-methyl-1H-1,5-naphthyridin-2-one], the “Clearance of Human hepatocyte” value in data set [1] was 1.4 μL/min/10^6 cell. The “Clearance of Human microsome” value in data set [2] was 6.15 mL/min/kg. Also, the 50% inhibitory concentration (IC50) in data set [3] was 17.3 nM.

As for `Cc1nc(C2CC2)cc2[nH]c(=O)c(N)c(-c3ccc(F)c4[nH]ncc34)c12` [Example 166, 3-Amino-7-cyclopropyl-4-(7-fluoro-1H-indazol-4-yl)-5-methyl-1H-1,6-naphthyridin-2-one], in data set [2], the “Clearance of Human microsome” value worked out at 6.15 mL/min/kg. In addition, the half-inhibitory concentration (IC50) in data set [3] was determined as 14.7 nM.

Regarding `Cc1nc(C)c2[nH]c(=O)c(N)c(-c3ccc(F)c4[nH]ncc34)c2n1` [Example 084, 7-Amino-8-(7-fluoro-1H-indazol-4-yl)-2,4-dimethyl-5H-pyrido[3,2-d]pyrimidin-6-one], the “Clearance of Human microsome” value in data set [2] was found to be 6.15 mL/min/kg. The concentration for half-maximal inhibition (IC50) in data set [3] was less than 10 nM.

On to `Cc1c(CC(F)(F)F)cnc2c(-c3ccc(F)c4[nH]ncc34)c(N)c(=O)[nH]c12` [Example 133, 3-Amino-4-(7-fluoro-1H-indazol-4-yl)-8-methyl-7-(2,2,2-trifluoroethyl)-1H-1,5-naphthyridin-2-one], for which the “Clearance of Human hepatocyte” value in data set [1] was found to be 1.7 μL/min/10^6 cell. The 50% inhibitory concentration (IC50) in data set [3] is less than 10 nM.

Take `Cc1cc(Cl)c2[nH]c(=O)c(N)c(-c3ccc(F)c4[nH]ncc34)c2n1` [Example 090, 3-Amino-8-chloro-4-(7-fluoro-1H-indazol-4-yl)-6-methyl-1H-1,5-naphthyridin-2-one]: the “Clearance of Human microsome” value in data set [2] turned out to be 6.15 mL/min/kg. The IC50 in data set [3] came out at 13 nM.

Regarding `Cc1c(C2CC2)cnc2c(-c3ccc(F)c4[nH]ncc34)c(N)c(=O)[nH]c12` [Example 100, 3-Amino-7-cyclopropyl-4-(7-fluoro-1H-indazol-4-yl)-8-methyl-1H-1,5-naphthyridin-2-one], the “Clearance of Human hepatocyte” value in data set [1] is listed as less than 1 μL/min/10^6 cell.

Consider `Cc1cc2[nH]c(=O)c(N)c(-c3ccc(F)c4[nH]ncc34)c2nc1C#CC1COCC1O` (stereo not drawn) [Example 073, 3-Amino-4-(7-fluoro-1H-indazol-4-yl)-6-[2-(4-hydroxytetrahydrofuran-3-yl)ethynyl]-7-methyl-1H-1,5-naphthyridin-2-one], for which, in data set [2], the “Clearance of Human microsome” value is 6.15 mL/min/kg. Further, in data set [3], the IC50 came to 14 nM.

Turning to `Cc1cc(Cl)nc2c(-c3ccc(F)c4[nH]ncc34)c(N)c(=O)[nH]c12` [Example 091, 3-Amino-6-chloro-4-(7-fluoro-1H-indazol-4-yl)-8-methyl-1H-1,5-naphthyridin-2-one], the “Clearance of Human microsome” value in data set [2] is 6.15 mL/min/kg. In addition, the half-maximal inhibitory concentration (IC50) in data set [3] worked out at 14 nM.

Take `Cc1cnc2c(-c3ccc(F)c4[nH]ncc34)c(N)c(=O)[nH]c2c1C` [Example 054, 3-Amino-4-(7-fluoro-1H-indazol-4-yl)-7,8-dimethyl-1H-1,5-naphthyridin-2-one]: the “Clearance of Human hepatocyte” value in data set [1] is on record as less than 1 μL/min/10^6 cell.

As to `Cc1cc2[nH]c(=O)c(N)c(-c3ccc(F)c4[nH]ncc34)c2nc1C#CC(C)(C)O` [Example 070, 3-Amino-4-(7-fluoro-1H-indazol-4-yl)-6-(3-hydroxy-3-methyl-but-1-ynyl)-7-methyl-1H-1,5-naphthyridin-2-one], the “Clearance of Human hepatocyte” value in data set [1] was 1.4 μL/min/10^6 cell.

For the compound `Cc1c([S+](C)[O-])cnc2c(-c3ccc(F)c4[nH]ncc34)c(N)c(=O)[nH]c12` (stereo not drawn) [Example 142, 3-Amino-4-(7-fluoro-1H-indazol-4-yl)-8-methyl-7-methylsulfinyl-1H-1,5-naphthyridin-2-one], the “Clearance of Human microsome” value in data set [2] worked out at 6.15 mL/min/kg. Further, in data set [3], the half-inhibitory concentration (IC50) stood at 18.4 nM.

As for `Cc1c(C#N)cnc2c(-c3ccc(F)c4[nH]ncc34)c(N)c(=O)[nH]c12` [Example 118, 7-Amino-8-(7-fluoro-1H-indazol-4-yl)-4-methyl-6-oxo-5H-1,5-naphthyridine-3-carbonitrile], the “Clearance of Human microsome” value in data set [2] is 6.15 mL/min/kg. In data set [3], the half-inhibitory concentration (IC50) is 17.8 nM.

On to `Nc1c(-c2ccc(F)c3[nH]ncc23)c2c(Cl)nc(C3CC3)cc2[nH]c1=O` [Example 163, 3-Amino-5-chloro-7-cyclopropyl-4-(7-fluoro-1H-indazol-4-yl)-1H-1,6-naphthyridin-2-one], for which the “Clearance of Human hepatocyte” value in data set [1] is less than 1 μL/min/10^6 cell. Moreover, the concentration for half-maximal inhibition (IC50) in data set [3] is less than 10 nM.

Take `Cc1c(N2CCC2)cnc2c(-c3ccc(F)c4[nH]ncc34)c(N)c(=O)[nH]c12` [Example 117, 3-Amino-7-(azetidin-1-yl)-4-(7-fluoro-1H-indazol-4-yl)-8-methyl-1H-1,5-naphthyridin-2-one]: the “Clearance of Human microsome” value in data set [2] is given as 7.72 mL/min/kg. In data set [3], the concentration for half-maximal inhibition (IC50) is 14.9 nM.

As for `Cc1cnc2c(-c3ccc(F)c4[nH]ncc34)c(N)c(=O)[nH]c2c1` [Example 002, 3-Amino-4-(7-fluoro-1H-indazol-4-y1)-7-methyl-1H-1,5-naphthyridin-2-one], the “Clearance of Human hepatocyte” value in data set [1] amounted to 1.3 μL/min/10^6 cell.

With `Cc1c(C2COC2)cnc2c(-c3ccc(F)c4[nH]ncc34)c(N)c(=O)[nH]c12` [Example 122, 3-Amino-4-(7-fluoro-1H-indazol-4-yl)-8-methyl-7-(oxetan-3-yl)-1H-1,5-naphthyridin-2-one], the “Clearance of Human microsome” value in data set [2] is listed as 6.15 mL/min/kg. For the same compound, the concentration for half-maximal inhibition (IC50) in data set [3] is less than 10 nM.

As to `Cc1cc2[nH]c(=O)c(N)c(-c3ccc(F)c4[nH]ncc34)c2nc1C1CCNCC1` [Example 069, 3-Amino-4-(7-fluoro-1H-indazol-4-yl)-7-methyl-6-(4-piperidyl)-1H-1,5-naphthyridin-2-one], the “Clearance of Human microsome” value in data set [2] is given as 7.78 mL/min/kg. Also, in data set [3], the IC50 stood at 10.9 nM.

For `[2H]C([2H])([2H])c1cnc2c(-c3ccc(F)c4[nH]ncc34)c(N)c(=O)[nH]c2c1C` [Example 101, 3-Amino-4-(7-fluoro-1H-indazol-4-yl)-8-methyl-7-(trideuteriomethyl)-1H-1,5-naphthyridin-2-one], the “Clearance of Human hepatocyte” value in data set [1] is on record as less than 1 μL/min/10^6 cell.

As to `Cc1cnc(Cl)c2c(-c3ccc(F)c4[nH]ncc34)c(N)c(=O)[nH]c12` [Example 164, 3-Amino-5-chloro-4-(7-fluoro-1H-indazol-4-yl)-8-methyl-1H-1,6-naphthyridin-2-one], the “Clearance of Human microsome” value in data set [2] is listed as 6.15 mL/min/kg. Besides, the IC50 in data set [3] was less than 10 nM.

As to `Cc1cc2[nH]c(=O)c(N)c(-c3ccc(F)c4[nH]ncc34)c2nc1C` [Example 017, 3-Amino-4-(7-fluoro-1H-indazol-4-yl)-6,7-dimethyl-1H-1,5-naphthyridin-2-one], the “Clearance of Human hepatocyte” value in data set [1] worked out at 1.6 μL/min/10^6 cell.

On to `Cc1cc2[nH]c(=O)c(N)c(-c3ccc(F)c4[nH]ncc34)c2nc1C1CCN(C)CC1` [Example 082, 3-Amino-4-(7-fluoro-1H-indazol-4-yl)-7-methyl-6-(1-methyl-4-piperidyl)-1H-1,5-naphthyridin-2-one], for which the “Clearance of Human microsome” value in data set [2] was determined as 6.15 mL/min/kg. For the same compound, the IC50 in data set [3] was 16.4 nM.

The record behind these values is US20260078122A1, “INDAZOLE COMPOUNDS AS PKMYT1 KINASE INHIBITORS” (Hoffmann-La Roche Inc., priority 2023, published 2026).
